The text below walks through data of ChEMBL document CHEMBL5291721, “A preclinical secondary pharmacology resource illuminates target-adverse drug reaction associations of marketed drugs” (Nat Commun, 2023).

One may read the AC50 as the concentration giving half of the maximal activity seen. A higher AC50 goes with activity only at high concentration.

Each structure is given as a SMILES string. Some results are limits rather than exact numbers.

The target in experiment [1] is T1, Amine oxidase [flavin-containing] A (Homo sapiens, UniProt P21397).
T1 sequence (P21397 whole entry): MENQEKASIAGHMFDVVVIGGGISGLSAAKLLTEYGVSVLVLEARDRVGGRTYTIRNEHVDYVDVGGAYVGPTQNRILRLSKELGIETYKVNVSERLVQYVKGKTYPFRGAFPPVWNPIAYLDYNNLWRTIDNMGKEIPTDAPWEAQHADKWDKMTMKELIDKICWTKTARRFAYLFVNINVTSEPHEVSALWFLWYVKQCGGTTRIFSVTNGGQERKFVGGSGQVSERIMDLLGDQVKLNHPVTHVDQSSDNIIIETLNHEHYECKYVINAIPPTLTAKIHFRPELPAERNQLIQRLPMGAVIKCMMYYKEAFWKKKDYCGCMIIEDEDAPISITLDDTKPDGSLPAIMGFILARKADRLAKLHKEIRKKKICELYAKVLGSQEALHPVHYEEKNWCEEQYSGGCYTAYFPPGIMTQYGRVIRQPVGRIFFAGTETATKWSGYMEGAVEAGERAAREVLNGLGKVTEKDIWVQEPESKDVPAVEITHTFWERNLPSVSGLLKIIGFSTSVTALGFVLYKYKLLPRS
The experiment is classed as functional.

Experiment [2] deals with T2, Muscarinic acetylcholine receptor M2 (Homo sapiens, UniProt P08172).
T2 sequence (P08172 whole entry): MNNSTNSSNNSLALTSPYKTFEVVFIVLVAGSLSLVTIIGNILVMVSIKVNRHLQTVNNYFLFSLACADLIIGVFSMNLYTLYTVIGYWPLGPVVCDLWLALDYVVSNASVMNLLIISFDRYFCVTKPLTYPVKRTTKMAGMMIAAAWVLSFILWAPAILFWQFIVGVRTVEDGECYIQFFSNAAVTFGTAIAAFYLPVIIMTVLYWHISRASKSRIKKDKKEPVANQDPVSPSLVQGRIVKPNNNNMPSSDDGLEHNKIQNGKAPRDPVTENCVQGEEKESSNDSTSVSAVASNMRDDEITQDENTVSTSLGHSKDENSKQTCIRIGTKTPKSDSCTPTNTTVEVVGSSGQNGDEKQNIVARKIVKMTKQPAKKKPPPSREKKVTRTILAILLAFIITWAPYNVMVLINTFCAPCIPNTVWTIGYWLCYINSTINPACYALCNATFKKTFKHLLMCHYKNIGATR
The experiment is classed as functional, cell-based.

Experiment [3] addresses T3, Muscarinic acetylcholine receptor M1 (Homo sapiens, UniProt P11229).
T3 sequence (P11229 whole entry): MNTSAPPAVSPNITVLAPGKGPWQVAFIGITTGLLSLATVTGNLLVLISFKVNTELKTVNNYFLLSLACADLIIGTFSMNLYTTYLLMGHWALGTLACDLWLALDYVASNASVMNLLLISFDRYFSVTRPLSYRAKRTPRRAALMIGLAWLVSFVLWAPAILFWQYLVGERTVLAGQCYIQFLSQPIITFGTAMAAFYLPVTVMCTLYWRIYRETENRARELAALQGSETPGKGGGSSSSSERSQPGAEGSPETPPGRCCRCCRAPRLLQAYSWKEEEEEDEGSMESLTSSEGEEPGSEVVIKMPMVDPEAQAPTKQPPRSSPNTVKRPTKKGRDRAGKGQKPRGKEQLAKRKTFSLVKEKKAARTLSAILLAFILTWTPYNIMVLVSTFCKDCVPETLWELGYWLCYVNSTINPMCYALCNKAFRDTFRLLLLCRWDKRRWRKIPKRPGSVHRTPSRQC
The experiment is classed as functional, cell-based.

Experiment [4] has as its target T4, 5-hydroxytryptamine receptor 2C (Homo sapiens, UniProt P28335).
T4 sequence (P28335 whole entry): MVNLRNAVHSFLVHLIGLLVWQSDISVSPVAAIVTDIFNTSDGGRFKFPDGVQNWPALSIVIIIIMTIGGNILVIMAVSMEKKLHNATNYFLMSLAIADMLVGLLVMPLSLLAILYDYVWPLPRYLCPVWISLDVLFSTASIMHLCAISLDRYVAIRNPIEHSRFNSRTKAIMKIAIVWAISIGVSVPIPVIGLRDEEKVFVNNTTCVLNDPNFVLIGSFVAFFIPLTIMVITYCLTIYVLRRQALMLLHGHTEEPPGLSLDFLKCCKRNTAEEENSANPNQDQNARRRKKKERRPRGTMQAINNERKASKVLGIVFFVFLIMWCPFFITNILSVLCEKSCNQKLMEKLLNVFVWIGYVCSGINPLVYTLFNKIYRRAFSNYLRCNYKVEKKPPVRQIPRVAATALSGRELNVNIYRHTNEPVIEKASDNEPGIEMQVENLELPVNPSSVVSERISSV

For experiment [5], the target named is Gamma-aminobutyric acid receptor subunit alpha-1 (Rattus norvegicus, UniProt P62813). The experiment is classed as functional.
For a further experiment, the target named is Histamine H2 receptor (Homo sapiens, UniProt P25021). The experiment is classed as functional, cell-based.
Another experiment addresses D(1A) dopamine receptor (Homo sapiens, UniProt P21728). The experiment is classed as functional, cell-based.
The target of the next experiment is Adenosine receptor A2a (Homo sapiens, UniProt P29274).
For experiment [6], the target named is T5, Alpha-1A adrenergic receptor (Homo sapiens, UniProt P35348).
T5 sequence (P35348 whole entry): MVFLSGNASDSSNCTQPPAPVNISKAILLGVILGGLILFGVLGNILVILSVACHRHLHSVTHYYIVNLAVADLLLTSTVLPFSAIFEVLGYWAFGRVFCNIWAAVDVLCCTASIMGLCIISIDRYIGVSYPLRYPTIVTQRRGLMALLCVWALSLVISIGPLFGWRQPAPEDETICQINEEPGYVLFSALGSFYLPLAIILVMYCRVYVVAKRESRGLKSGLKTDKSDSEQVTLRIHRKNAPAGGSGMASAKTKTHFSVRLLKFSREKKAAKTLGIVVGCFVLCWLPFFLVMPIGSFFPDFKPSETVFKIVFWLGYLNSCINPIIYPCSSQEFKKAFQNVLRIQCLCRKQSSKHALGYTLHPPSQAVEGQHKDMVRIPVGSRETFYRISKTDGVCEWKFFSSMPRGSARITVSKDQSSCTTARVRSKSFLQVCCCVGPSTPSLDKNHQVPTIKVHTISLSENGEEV
The experiment is classed as functional, cell-based.

For experiment [7], the target named is 5-hydroxytryptamine receptor 2B (Homo sapiens, UniProt P41595). The experiment is classed as functional, cell-based.
Experiment [8] addresses T5, Alpha-1A adrenergic receptor. The experiment is classed as functional, cell-based. The source holds these as a separate data set.
Further: assay procedure not described here.

Sequence of Adenosine receptor A2a (P29274 whole entry): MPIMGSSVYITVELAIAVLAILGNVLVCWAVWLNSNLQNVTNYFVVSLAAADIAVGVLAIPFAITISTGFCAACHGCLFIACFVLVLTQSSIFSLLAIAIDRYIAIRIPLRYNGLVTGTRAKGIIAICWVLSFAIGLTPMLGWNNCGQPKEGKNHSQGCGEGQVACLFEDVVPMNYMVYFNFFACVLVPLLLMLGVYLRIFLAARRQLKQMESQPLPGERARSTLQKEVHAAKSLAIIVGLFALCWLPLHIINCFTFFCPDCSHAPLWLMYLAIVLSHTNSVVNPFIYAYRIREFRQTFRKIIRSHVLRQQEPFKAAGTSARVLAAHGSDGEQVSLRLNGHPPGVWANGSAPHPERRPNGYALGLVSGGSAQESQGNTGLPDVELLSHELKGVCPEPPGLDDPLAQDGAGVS
Sequence of 5-hydroxytryptamine receptor 2B (P41595 whole entry): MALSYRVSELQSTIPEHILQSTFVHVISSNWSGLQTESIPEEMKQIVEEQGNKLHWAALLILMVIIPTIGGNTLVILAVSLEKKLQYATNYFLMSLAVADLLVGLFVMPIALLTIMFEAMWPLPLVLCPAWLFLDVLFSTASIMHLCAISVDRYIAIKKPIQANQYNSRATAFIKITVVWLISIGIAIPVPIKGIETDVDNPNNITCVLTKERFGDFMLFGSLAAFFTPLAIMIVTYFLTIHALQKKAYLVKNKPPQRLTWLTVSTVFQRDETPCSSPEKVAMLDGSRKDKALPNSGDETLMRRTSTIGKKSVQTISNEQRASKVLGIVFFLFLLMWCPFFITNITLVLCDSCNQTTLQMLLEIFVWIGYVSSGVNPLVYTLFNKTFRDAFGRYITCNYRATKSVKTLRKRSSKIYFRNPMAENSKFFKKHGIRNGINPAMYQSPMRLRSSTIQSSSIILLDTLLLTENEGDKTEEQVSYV
Sequence of Histamine H2 receptor (P25021 whole entry): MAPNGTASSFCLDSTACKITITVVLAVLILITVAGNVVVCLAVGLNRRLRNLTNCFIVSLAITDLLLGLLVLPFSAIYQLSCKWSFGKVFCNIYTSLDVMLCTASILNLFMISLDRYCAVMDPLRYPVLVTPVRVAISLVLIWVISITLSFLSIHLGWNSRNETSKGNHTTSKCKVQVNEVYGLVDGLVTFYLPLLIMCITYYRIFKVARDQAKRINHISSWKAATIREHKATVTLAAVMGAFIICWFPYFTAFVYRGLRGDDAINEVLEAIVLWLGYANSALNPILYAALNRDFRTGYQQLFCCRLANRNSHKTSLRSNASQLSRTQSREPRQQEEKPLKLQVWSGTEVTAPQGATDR
Sequence of Gamma-aminobutyric acid receptor subunit alpha-1 (P62813 whole entry): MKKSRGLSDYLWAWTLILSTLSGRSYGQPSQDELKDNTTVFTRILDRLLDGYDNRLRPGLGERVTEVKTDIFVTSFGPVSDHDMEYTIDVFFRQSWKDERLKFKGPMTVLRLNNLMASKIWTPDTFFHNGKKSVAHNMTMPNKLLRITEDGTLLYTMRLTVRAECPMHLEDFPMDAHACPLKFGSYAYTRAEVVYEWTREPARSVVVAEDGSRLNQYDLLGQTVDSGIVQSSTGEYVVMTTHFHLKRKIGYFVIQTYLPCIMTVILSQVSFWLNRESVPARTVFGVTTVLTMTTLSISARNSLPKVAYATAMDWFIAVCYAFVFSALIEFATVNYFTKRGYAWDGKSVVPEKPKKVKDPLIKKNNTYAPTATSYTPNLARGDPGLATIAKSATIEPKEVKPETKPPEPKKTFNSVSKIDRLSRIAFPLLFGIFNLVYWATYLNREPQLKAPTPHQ
Sequence of D(1A) dopamine receptor (P21728 whole entry): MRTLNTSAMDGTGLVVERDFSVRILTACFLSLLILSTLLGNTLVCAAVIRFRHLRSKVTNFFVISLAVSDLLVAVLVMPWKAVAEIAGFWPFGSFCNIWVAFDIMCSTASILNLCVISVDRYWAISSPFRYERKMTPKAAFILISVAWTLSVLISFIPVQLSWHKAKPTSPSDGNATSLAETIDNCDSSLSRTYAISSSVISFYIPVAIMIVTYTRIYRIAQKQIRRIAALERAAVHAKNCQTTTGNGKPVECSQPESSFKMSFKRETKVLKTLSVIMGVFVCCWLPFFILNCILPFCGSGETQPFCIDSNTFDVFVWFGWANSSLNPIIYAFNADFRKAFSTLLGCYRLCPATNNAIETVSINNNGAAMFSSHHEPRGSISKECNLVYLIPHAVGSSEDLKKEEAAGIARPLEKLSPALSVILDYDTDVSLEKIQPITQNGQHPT

`CCCc1nc2c(C)cc(-c3nc4ccccc4n3C)cc2n1Cc1ccc(-c2ccccc2C(=O)O)cc1`: the half-maximal activity concentration (AC50) in [1] is > 30 µM; in experiment [2], > 30 µM; in [3] it was 17.6 µM; in [4] it was > 30 µM; in experiment [5], > 30 µM; on Histamine H2 receptor, > 10 µM. Besides, the AC50 was > 30 µM at D(1A) dopamine receptor, > 30 µM at Adenosine receptor A2a, > 30 µM in experiment [6] and 6.33 µM in experiment [7].

Take `CC[C@@H]1C[C@]1(NC(=O)[C@@H]1C[C@@H]2CN1C(=O)[C@H](C(C)(C)C)NC(=O)OCC(C)(C)CCCCc1cccc3c1CN(C3)C(=O)O2)C(=O)NS(=O)(=O)C1CC1`: the half-maximal activity concentration (AC50) was 23.4 µM in experiment [3] and > 3 µM in experiment [8].

For the molecule `CC(=O)NO` [ACETOHYDROXAMIC ACID], the half-maximal activity concentration (AC50) in experiment [3] and in experiment [8] was > 30 µM in each case.

As to `CC(=O)NCCCCCC(=O)O` [ACEXAMIC ACID], the half-maximal activity concentration (AC50) in [3] is > 30 µM.

With `C=C(C)CNc1ccc(C(C)C(=O)O)cc1` (configuration not stated) [ALMINOPROFEN], the AC50 in experiment [3] and in experiment [8] was > 30 µM each time.

As to `C[C@H]1CN(C[C@H](Cc2ccccc2)C(=O)NCC(=O)O)CC[C@@]1(C)c1cccc(O)c1` [ALVIMOPAN], the AC50 in experiment [3] and in [8] was > 30 µM in each case.

Take `C[C@H]1O[C@@H](O[C@H]2CC[C@@]3(C)[C@H](CC[C@@H]4[C@@H]3C[C@@H](O)[C@]3(C)[C@@H](C5=CC(=O)OC5)CC[C@]43O)C2)C[C@H](O)[C@@H]1O[C@H]1C[C@H](O)[C@H](O[C@H]2C[C@H](O)[C@H](O[C@@H]3O[C@H](CO)[C@@H](O)[C@H](O)[C@H]3O)[C@@H](C)O2)[C@@H](C)O1` [DESLANOSIDE]: the AC50 in experiment [3] and in experiment [8] was > 30 µM in each case.

`O=C(O)Cc1ccccc1Nc1c(Cl)cccc1Cl` [DICLOFENAC]: the AC50 is > 10 µM in experiment [1]; > 10 µM in experiment [2]; > 10 µM in experiment [4]; > 3 µM in experiment [8]; > 10 µM in experiment [5]; > 10 µM at Histamine H2 receptor. In addition, the AC50 on D(1A) dopamine receptor is > 10 µM; on Adenosine receptor A2a, > 30 µM; in experiment [6], > 30 µM; in [7], > 10 µM.

As for `CC[C@H]1OC(=O)[C@H](C)[C@@H](O[C@H]2C[C@@](C)(OC)[C@@H](O)[C@H](C)O2)[C@H](C)[C@@H](O[C@@H]2O[C@H](C)C[C@H](N(C)C)[C@H]2O)[C@](C)(O)C[C@@H](C)[C@@H]2N[C@@H](COCCOC)O[C@H]([C@H]2C)[C@]1(C)O` [DIRITHROMYCIN], the AC50 in experiment [3] and in experiment [8] was > 30 µM throughout.

`CCCCc1oc2ccc(NS(C)(=O)=O)cc2c1C(=O)c1ccc(OCCCN(CCCC)CCCC)cc1` [DRONEDARONE]: the AC50 was > 30 µM in experiment [3] and 5.92 µM in [8].

Turning to `CC(C)C(=O)Oc1ccc(CO)cc1[C@H](CCN(C(C)C)C(C)C)c1ccccc1` [FESOTERODINE], the AC50 in experiment [3] and in experiment [8] was > 30 µM throughout.

Turning to `Cc1ccc(C)c(OCCCC(C)(C)C(=O)O)c1` [GEMFIBROZIL], the AC50 in experiment [1] is > 10 µM; in experiment [2], > 10 µM; in [4] it was > 30 µM; in experiment [8] it was > 30 µM; in [5] it was > 10 µM; at Histamine H2 receptor, > 10 µM. Further, the AC50 on D(1A) dopamine receptor is > 10 µM; on Adenosine receptor A2a, > 30 µM; in experiment [6], > 30 µM; in experiment [7], 4.4 µM.

As for `C[N+](C)(CCCCCC[N+](C)(C)C1c2ccccc2-c2ccccc21)C1c2ccccc2-c2ccccc21` [HEXAFLUORENIUM], the AC50 in experiment [3] is > 30 µM; in experiment [8] it was 3.09 µM.

Turning to `CCCCC(CC)CN1CN(CC(CC)CCCC)CC(C)(N)C1` (configuration not stated) [HEXETIDINE], the AC50 in [3] and in experiment [8] was > 30 µM each time.

Regarding `Cc1cc(=O)oc2cc(O)ccc12` [HYMECROMONE], the AC50 in [3] and in experiment [8] was > 30 µM each time.

In the case of `COc1c2occc2c(OC)c2c(=O)cc(C)oc12` [KHELLIN], the concentration at half-maximal activity (AC50) in experiment [3] and in experiment [8] was > 30 µM each time.

In the case of `CC(C)[C@@H]1CC[C@@H](C)C[C@H]1O` [LEVOMENTHOL], the half-maximal activity concentration (AC50) in [3] and in experiment [8] was > 30 µM each time.

`COC(=O)[C@@H](N)Cc1ccc(O)c(O)c1` [MELEVODOPA]: the AC50 in experiment [3] and in experiment [8] was > 30 µM in each case.

Turning to `C[N+]1(C)CCCC(OC(=O)C(O)(c2ccccc2)c2ccccc2)C1` (configuration not stated) [MEPENZOLATE], the concentration at half-maximal activity (AC50) in [3] and in experiment [8] was > 30 µM in each case.

In the case of `C=N[C@@H](C(=O)N[C@@H]1C(=O)N2[C@@H]1SC(C)(C)[C@@H]2C(=O)O)c1ccccc1` [METAMPICILLIN], the AC50 in [3] and in experiment [8] was > 30 µM throughout.

Regarding `O=C(NNCS(=O)(=O)O)c1ccncc1` [METHANIAZIDE], the AC50 in experiment [3] and in experiment [8] was > 30 µM in each case.

Regarding `Cc1cc(=O)[nH]c(=S)[nH]1` [METHYLTHIOURACIL], the AC50 in experiment [3] and in [8] was > 30 µM throughout.

For `CN(C)c1ccc(O)c2c1C[C@H]1C[C@H]3[C@H](N(C)C)C(O)=C(C(N)=O)C(=O)[C@@]3(O)C(O)=C1C2=O` [MINOCYCLINE], the AC50 in experiment [3] and in experiment [8] was > 30 µM throughout.

On to `CCNC(=O)/C=C(C)/C=C/C=C(C)/C=C/c1c(C)cc(OC)c(C)c1C` [MOTRETINIDE], for which the AC50 in [3] and in experiment [8] was > 30 µM throughout.

In the case of `C=CC(=O)Nc1cccc(Oc2nc(Nc3ccc(N4CCN(C)CC4)cc3)nc3ccsc23)c1` [OLMUTINIB], the results for the half-maximal activity concentration (AC50) in experiment [3] and in experiment [8] were > 30 µM and 4.91 µM, respectively.

For the molecule `CCCCC1C(=O)N(c2ccccc2)N(c2ccc(O)cc2)C1=O` (configuration not stated) [OXYPHENBUTAZONE ANHYDROUS], the half-maximal activity concentration (AC50) in experiment [3] and in experiment [8] was > 30 µM throughout.

Regarding `O=C(O)CN(CCN(CC(=O)O)CC(=O)O)CCN(CC(=O)O)CC(=O)O` [PENTETIC ACID], the AC50 in experiment [3] was > 30 µM; in experiment [8], 1.28 µM.
